“And” between values parts separate entries of the source, which are not always exact repeats. Identical values can stand only once.

The text below walks through data of article PMC3425516 (PLoS ONE, 2012).

For data set [1], the system named is HCT116 cells. Briefly: Western blot histone H3 and α-tubulin acetylation. In kind it is cell-based, human. To be noted: 24 h. How it is done: (§1) For total lysate, cells were lysed with the 120 µL ice-cold lysis buffer [10 mmol/L Tris-HCl (pH 7.4), 150 mmol/L NaCl, 1 mmol/L EGTA, 1 mmol/L phenylmethylsulfonyl fluoride, 10 µg/mL aprotinin, 10 µg/mL leupeptin, 1 mM sodium orthovandate, 1 mM NaF, and 1% Triton X-100]. Cell lysates were centrifuged at 13,000 rpm for 30 min. For Western blot analysis, the amount of protein (40 µg) was separated by electrophoresis in a 10% or 15% polyacrylamide gel and transferred to a polyvinylidene difluoride (PVDF) membrane. After 1 h incubation at room temperature in PBS/5% nonfat milk, the membrane was washed with PBS/0.1% and incubated with the indicated antibodies at 4°C overnight. After washings with PBS/0.1% Tween 20, the corresponding secondary antibodies were applied to the membranes for 1 h at room temperature. The membranes were then washed with PBS/0.1% Tween 20 and the detection of signal was done with an enhanced chemiluminescence detection kit (Amersham, Buckinghamshire, UK).
A general note: In western blotting, separated proteins are transferred to a membrane and probed.

Data set [2] can be described thus: Body weight and adverse effects in xenograft study. The format is in vivo, nude mice. To be noted: HCT116 xenograft mice, oral daily treatment. As to the method:
(A) Tumors were measured regularly and growth delay was calculated for treatment groups relative to control tumors (TGD). (B) Kaplan-Meier survival analysis was based on the tumor growth endpoint. (C) Inhibition of tumor growth curves represented a mean±SEM and percentage change in mean tumor volume (percent TGI). (D) Body weights were measured daily during the first week and then 2 times per week. The body weight ratio was calculated relative to the baseline measurement.
(§2) Once a tumor was palpable with the size of approximately 55 mm^3, mice were randomized into vehicle control and treatment groups (8 mice per group). Control mice received the vehicle (0.5% carboxymethyl cellulose +0.1% Tween 80). Tumors in all 3 groups were allowed to reach an endpoint volume of 1,200 mm^3.

Data set [3] deals with HCT116 cells. Briefly: Flow cytometry cell cycle / sub-G1 analysis. In kind it is cell-based, human. How it is done:
After centrifugation, cells were incubated in 0.1 mol/L phosphate-citric acid buffer [0.2 mol/L NaHPO4, 0.1 mol/L citric acid (pH 7.8)] for 20 min at room temperature. Then, the cells were centrifuged and resuspended with 0.5 mL PI solution containing Triton X-100 (0.1%, v/v), RNase (100 µg/mL), and PI (80 µg/mL). DNA content was analyzed with the FACScan and CellQuest software (Becton Dickinson).
On the technique in general: In flow cytometry, cells or beads pass a laser one at a time.

Data set [4] deals with human HCT116 colorectal cancer xenograft. Description: HCT116 xenograft, tumor growth delay to 1,200 mm^3 endpoint. In kind it is in vivo, nude mice. As to the method:
The human HCT116 colorectal adenocarcinoma cells used for implantation were harvested during log phase growth and resuspended in phosphate-buffered saline at 5×10^7 cells/mL. Each mouse was injected s.c. in the right flank with 1.0×10^7 cells (0.2 mL cell suspension). Tumors were monitored twice weekly and then daily as their volumes approached 1,200 mm^3. Tumor size, in mm^3, was calculated from: where w = width and l = length in mm of the tumor. Tumor volume = (w^2×l)/2.
The logrank test was used to determine the statistical significance of the difference between the TTE values of two groups, except any NTR deaths. […] The two-tailed statistical analyses were conducted at P = 0.05. Kaplan-Meier plots show the percentage of animals remaining in the study versus time. The Kaplan-Meier plots use the same data set as the logrank test.
as §2

The test system of a further data set is HCT116 xenograft tumors. Briefly: Western blot of HCT116 xenograft tumor tissues. The format is in vivo, nude mice. To be noted: 200 mg/kg oral daily for 7 days. As to the method: as §1, with “For Western blot analysis, the amount of protein (40 µg) was separated by electrophoresis in a 10% or 15% polyacrylamide gel and transferred to a polyvinylidene difluoride (PVDF) membrane.” left out
as §2

Data set [5] relates to HCT116 cells. Description: Sulforhodamine B cell growth assay. Conditions: Homo sapiens, HCT-116, 48 h. The format is cell-based. How it is done: HCT116, MDAMB231 and NCI-ADR cells were seeded in 96-well plates in medium with 5% fetal bovine serum overnight. Cells were fixed with 10% trichloroacetic representing cell population at the time of drug treatment (T 0). […] Excess Sulforhodamine B was washed away by 1% acetic acid and dye-containing cells were lysed with 10 mmol/L Trizma base. […] By measuring time zero (T 0), control growth (C), and cell growth in the presence of the drug (Tx), the percentage growth was calculated. Percentage growth inhibition was calculated as 100-[(Tx–T 0)/(C-T 0)]×100.

Usually GI50 stands for the concentration at which growth is held to half of that of the control. For the compound `O=C(CCCCCCC(=O)Nc1ccccc1)NO` [SAHA, suberoylanilide hydroxamic acid, reference compound], the “α-tubulin acetylation (western blot)” value with HCT116 cells [1] is recorded as “exhibited more potent α-tubulin acetylation than MPT0E028”. Moreover, the “body weight and other adverse effects” value in data set [2] is on record as “No significant body weight difference or other adverse effects”. The “sub-G1 population (flow cytometry)” value with HCT116 cells [3] is “weaker effect and delayed cytotoxicity”. In data set [4] (200 mg/kg po qd to endpoint 1200 mm^3), the “Median TTE” value is reported as 27.0 days. In addition, the “No. of CR (complete regression)” value in data set [4] (200 mg/kg po qd, 8 mice per group) amounted to 0. The “%TGD (tumor growth delay)” value in data set [4] (200 mg/kg po qd, [(T-C)/C]×100) is given as 63%. The T-C in data set [4] (200 mg/kg po qd, median TTE treated versus control) is 10.0 days and 10 days. Moreover, the “expression of caspase 3, PARP, acetyl-histone H3 and acetyl-tubulin in xenograft tumors” value in the data set on HCT116 xenograft tumors is listed as “acetyl-µ-tubulin were found more profoundly”. Moreover, in the data set with HCT116 cells [5], the concentration for 50% growth inhibition (GI50) worked out at 820 ± 70 nM.
